Patent US20240360154A1, “AROYL SUBSTITUTED TRICYCLIC COMPOUND, PREPARATION METHOD THEREFOR AND USE THEREOF” (GENFLEET THERAPEUTICS (SHANGHAI) INC., priority 2020, published 2024)

Tests used:
[1] = target: BTK (Homo sapiens (Human), UniProt Q06187); experiment: BTK enzyme experiment (ADP-Glo kinase assay); assay type: biochemical; conditions: 10 nM BTK, ATP 125 μM, Poly(Glu4, Tyr1), 90 minutes at 20° C.; read-out: BTK(WT) IC50
Outline: (§1)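 Wild-type or C481S BTK, added as 2× solution at 10 nM, preincubated 10 min with 3-fold compound dilutions in 50 mM HEPES pH 7.5, 10 mM MgCl2, 2 mM DTT, 0.0015% Brij-35. ADP-Glo luminescence norm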

[2] = target: BTK (C481S) (Homo sapiens (Human), UniProt Q06187, C481S); experiment: BTK C481S enzyme experiment (ADP-Glo kinase assay); assay type: biochemical; conditions: 10 nM BTK C481S, ATP 125 μM, Poly(Glu4, Tyr1), 90 minutes at 20° C.
Outline: as §1

[3] = target: p-BTK (WT) (Homo sapiens (Human), UniProt Q06187); experiment: p-BTK cell experiment, HEK293 transfected with WT-BTK plasmid (P-BTK Y223 sandwich ELISA); assay type: cell-based; conditions: HEK293 cells, compound cultured for two hours
Protocol: (§2) Day 1: HEK293 cells (ADDEXBIO, T0011001) at logarithmic growth phase were taken, digested with enzyme EDTA, collected and counted, and 2E6 cells were inoculated in a 10 cm culture dish and cultured overnight. Day 2: A mixed solution containing 6 μg of WT-BTK/C481S-BTK plasmid and 18 μL of FuGENE HD transfection reagent was prepared by using 1000 μL of Opti-MEM. After standing at room temperature for 10 minutes, the mixed solution was slowly added to the culture dish with a pipettor and cultured overnight. Day 3: The culture dish was taken out, and the cells were digested with enzyme EDTA, collected and counted, and 1E4 cells were inoculated in a 96-well cell culture plate and cultured overnight. A 3.16-fold gradient concentration stock solution of 1000× compound was prepared using DMSO, and placed at room temperature. Day 4: A prepared 1000× compound stock solution was taken, and diluted 200-fold to 5× compound stock solution with culture medium. 5× compound stock solution was added to each cell culture well with a final concentration of 1× compound stock solution and a DMSO content of 0.1%. DMSO was used as an experimental control. After the compound was added and cultured for two hours, the residual culture medium was removed. 100 μL of cell lysis buffer was added to each well, stood on ice for 30 minutes, and ultrasonically lysed with ice water for 5 minutes. After diluting the cell lysate in proportion, 80 μL of the mixture was transfer to an ELISA plate, and 80 μL of cell lysis buffer was added to the blank well. After incubating in an incubator at 37° C. for 2 hours, the plate was taken and the antibody incubation and color development termination operation were completed according to the instructions of Pathscan P-BTK (Y223) Sandwich ELISA Kit (Cell Signaling #23843 CA), and finally the OD value was read. The inhibition rate of the compound (%)=(ODcontrol−ODcompound)/(ODcontrol−ODblank)×100% was calculated. The compound gradient dilution concentration and the corresponding cell proliferation inhibition rate were fit by using Prism 8 four-parameter method, and IC50 value was calculated.

[4] = target: p-BTK (C481S) (Homo sapiens (Human), UniProt Q06187, C481S); experiment: p-BTK cell experiment, HEK293 transfected with C481S-BTK plasmid (P-BTK Y223 sandwich ELISA); assay type: cell-based; conditions: HEK293 cells, compound cultured for two hours
Protocol: as §2

[5] = system: TMD-8 cells; experiment: TMD-8 proliferation inhibition experiment; assay type: cell-based; conditions: human diffuse large B lymphoma cells, three days incubation
Outline: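 Log-phase cells seeded in 384-well plates (600 TMD-8 in RPMI 1640, 2000 OCI-LY10 in IMDM, both 10% FBS), then exposed one day later to 3-fold compound dilutions at 0.25% DMSO for three days. ADP-Glo luminescence read; inhibition versus DMSO and medium-only blank, IC50 by four-parameter fit.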

[6] = system: OCI-LY10 cells; experiment: OCI-LY10 proliferation inhibition experiment; assay type: cell-based; conditions: human diffuse large B lymphoma cells, three days incubation
Protocol: TMD-8 cells are human diffuse large B lymphoma (Mingzhou Bio, MZ-0832), cultured in 10% FBS+1% PS 1640 medium; OCI-LY10 is human diffuse large B lymphoma (BeNa Culture Collection, BNCC337742), cultured in 10% FBS+1% PS IMDM. Day 1: Cells at logarithmic growth phase were taken, counted and inoculated 600 TMD-8 or 2000 OCI-LY10 cells in a 384-well cell culture plate and cultured overnight. Day 2: A 3-fold gradient concentration stock solution of 400× compound was prepared with DMSO, and diluted 40-fold to a 10× compound stock solution with culture medium. The 10× compound stock solution was added to each cell culture well with a final concentration of 1× compound stock solution and a DMSO content of 0.25%. DMSO was used as experimental control, and culture medium was used as blank control. The incubation was continued for three days after compound addition. On the fifth day, 25 μL of […] was added to each well, mixed well and incubated for 10 minutes, then the chemiluminescence value (RLU value) was read. The cell proliferation inhibition rate (%)=(RLUcontrol−RLUcompound)/(RLUcontrol−RLUblank)×100% was calculated. The compound gradient dilution concentration and the corresponding cell proliferation inhibition rate were fit by using XLFit four-parameter method, and IC50 value was calculated.

p-BTK (WT), sequence (Q06187 whole entry): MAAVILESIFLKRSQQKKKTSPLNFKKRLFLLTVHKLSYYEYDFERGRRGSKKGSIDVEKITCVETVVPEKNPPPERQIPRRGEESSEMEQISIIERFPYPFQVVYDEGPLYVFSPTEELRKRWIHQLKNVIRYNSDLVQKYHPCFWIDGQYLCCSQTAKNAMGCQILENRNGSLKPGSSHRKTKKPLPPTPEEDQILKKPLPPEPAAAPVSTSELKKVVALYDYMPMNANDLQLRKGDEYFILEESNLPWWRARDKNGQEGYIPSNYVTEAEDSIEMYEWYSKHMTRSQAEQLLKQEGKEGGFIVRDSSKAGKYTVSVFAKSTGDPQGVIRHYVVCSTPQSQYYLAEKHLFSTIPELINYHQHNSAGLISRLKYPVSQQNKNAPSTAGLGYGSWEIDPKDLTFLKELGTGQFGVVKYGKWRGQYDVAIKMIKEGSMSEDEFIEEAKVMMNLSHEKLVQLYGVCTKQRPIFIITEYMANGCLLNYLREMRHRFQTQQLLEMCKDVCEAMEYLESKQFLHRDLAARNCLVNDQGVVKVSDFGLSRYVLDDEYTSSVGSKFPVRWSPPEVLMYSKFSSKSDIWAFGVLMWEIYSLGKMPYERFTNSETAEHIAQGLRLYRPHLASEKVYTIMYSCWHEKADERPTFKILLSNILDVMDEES
BTK, sequence (Q06187 whole entry): as above
p-BTK (C481S), sequence (Q06187 whole entry C481S): as the sequence (Q06187 whole entry) above, with C481S counted along it
BTK (C481S), sequence (Q06187 whole entry C481S): as the sequence (Q06187 whole entry) above, with C481S counted along it

Compound | IC50 [1] [µM] | IC50 [2] [µM] | IC50 [3] [µM] | IC50 [4] [µM] | IC50 [6] [µM] | IC50 [5] [µM] | IC50 ([5]; Homo sapiens, TMD8, 72 h) [µM]
CN1CC[C@]2(C1)Nc1c(cnc3[nH]cc(C(=O)c4ccc(Oc5ccccc5)cc4Cl)c13)NC2=O (single isomer, unassigned) [Z2-1] | 0.019 | 0.0092 | 0.0292 | 0.05 | 0.2 | 0.123 | 
CN1CC[C@@]2(C1)Nc1c(cnc3[nH]cc(C(=O)c4ccc(Oc5ccccc5)cc4Cl)c13)NC2=O (single isomer, unassigned) [Z2-2] | 0.0254 | 0.0109 | 0.0415 | 0.0566 | 0.307 | 0.266 | 
CN1CCC2(C1)Nc1c(cnc3[nH]cc(C(=O)c4ccc(Oc5ccccc5)cc4Cl)c13)NC2=O (stereo not shown) [Z2] | 0.0194 | 0.0123 | 0.123 | 0.0728 | 0.238 | 0.188 | 
COC[C@]1(C)Nc2c(cnc3[nH]cc(C(=O)c4ccc(Oc5ccccc5F)cc4Cl)c23)NC1=O [Z155, (S)-9-(2-chloro-4-(2-fluorophenoxy)benzoyl)-2-(methoxymethyl)-2-methyl-1,2,4,7-tetrahydro-3H-pyrrolo[3′,2′:5,6]pyrido[3,4-b]pyrazin-3-one] | 0.0086 | 0.0106 | 0.028 | 0.0483 |  |  | 0.087

Second part, led by results:

IC50 [1] [µM] | IC50 [2] [µM] | IC50 [3] [µM] | IC50 [4] [µM] | IC50 [6] [µM] | Compound | IC50 [5] [µM] | IC50 ([5]; Homo sapiens, TMD8, 72 h) [µM]
0.0168 | 0.0215 | 0.0167 | 0.0275 |  | [2H]C([2H])([2H])OC[C@]1(C)Nc2c(cnc3[nH]cc(C(=O)c4ccc(Oc5ccccc5F)cc4Cl)c23)NC1=O [Z160, (S)-9-(2-chloro-4-(2-fluorophenoxy)benzoyl)-2-((methoxy-d3)methyl)-2-methyl-1,2,4,7-tetrahydro-3H-pyrrolo[3′,2′:5,6]pyrido[3,4-b]pyrazin-3-one] |  | 0.108
0.0106 | 0.0125 | 0.017 | 0.0392 |  | [2H]C([2H])([2H])OC[C@]1(C([2H])([2H])[2H])Nc2c(cnc3[nH]cc(C(=O)c4ccc(Oc5ccccc5)cc4Cl)c23)NC1=O [Z161, (S)-9-(2-chloro-4-phenoxybenzoyl)-2-((methoxy-d3)methyl)-2-(methyl-d3)-1,2,4,7-tetrahydro-3H-pyrrolo[3′,2′:5,6]pyrido[3,4-b]pyrazin-3-one] |  | 0.0728
0.0045 | 0.0066 | 0.00398 | 0.00726 |  | COC[C@]1(C)Nc2c(cnc3[nH]cc(C(=O)c4ccc(Oc5c(F)cccc5OC)cc4Cl)c23)NC1=O [Z168, (S)-9-(2-chloro-4-(2-fluoro-6-methoxyphenoxy)benzoyl)-2-(methoxymethyl)-2-methyl-1,2,4,7-tetrahydro-3H-pyrrolo[3′,2′:5,6]pyrido[3,4-b]pyrazin-3-one] |  | 0.0224
0.0085 | 0.009 | 0.0102 | 0.0201 |  | COC[C@]1(C)Nc2c(cnc3[nH]cc(C(=O)c4ccc(Oc5cc(F)ccc5OC)cc4Cl)c23)NC1=O [Z169, (S)-9-(2-chloro-4-(5-fluoro-2-methoxyphenoxy)benzoyl)-2-(methoxymethyl)-2-methyl-1,2,4,7-tetrahydro-3H-pyrrolo[3′,2′:5,6]pyrido[3,4-b]pyrazin-3-one] |  | 0.0469
